# Experimental data: patent publication EP0745595A1, “3-(3-Aryloxyphenyl)-1-(substituted methyl)-s-triazine-2,4,6-oxo or thiotrione herbicidal agents” (American Cyanamid Company, priority 1995, dated 1996)
# Assays:
# Assay type in all cases: in vivo
# CHENOPODIUM ALBUM, L. [1] = test: Postemergence herbicidal evaluation, CHEAL (Lambsquarters, Common); settings: for CHEAL, herbicide rating (0-9): rated four to five weeks after treatment, averaged
# How it was run: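 Seedlings of common lambsquarters (Chenopodium album) were raised in jiffy flats for roughly two weeks, then sprayed postemergence through a nozzle at 40 psi with test compound dispersed in 50/50 acetone/water containing 0.5% TWEEN®20 surfactant. Plants were kept on greenhouse benches under standard care and rated visually on a 0-9 scale versus controls.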
# IPOMOEA SPP. = test: Postemergence herbicidal evaluation, IPOSS (Morningglory spp.); settings: for IPOSS, herbicide rating (0-9): rated four to five weeks after treatment, averaged
# How it was run: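 Seedlings of morningglory (Ipomoea spp.) were raised in jiffy flats for roughly two weeks. They were then sprayed postemergence through a nozzle at 40 psi with test compound dispersed in 50/50 acetone/water containing 0.5% TWEEN®20 surfactant. Plants were kept on greenhouse benches under standard care and visually rated 0-9 against controls four to five weeks after treatment.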
# [2] = system: SETARIA VIRIDIS, (L) BEAU; test: Postemergence herbicidal evaluation, SETVI (Foxtail, Green); parameters: key to SETVI rating / Herbicidal effect rating, SETVI / SETVI: 0-9 visual rating scale vs untreated control
# How it was run: (§1)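 Under usual greenhouse care after spraying, plants were examined four to five weeks on and given a 0–9 score relative to control. Application rate was about 0.125–0.500 kg/ha on ~two-week-old seedlings.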
# [3] = system: AMBROSIA ARTEMISIIFOLIA, L.; test: Postemergence herbicidal evaluation, AMBEL (Ragweed, Common); settings: for AMBEL, herbicide rating (0-9): rated four to five weeks after treatment, averaged
# How it was run: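 Common ragweed (Ambrosia artemisiifolia) seedlings were raised in jiffy flats for roughly two weeks, then sprayed postemergence through a nozzle at 40 psi with the test compound dispersed in 50/50 acetone/water carrying 0.5% TWEEN®20. The plants were kept on greenhouse benches under conventional care. Four to five weeks later, injury was rated visually on a 0-9 scale, and repeat tests were averaged.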
# [4] = system: TRITICUM AESTIVUM, CV. APOLLO; test: Postemergence herbicidal evaluation, TRZAWO (Wheat, Winter, CV. APOLLO)
# Description: In the tests, seedling plants are grown in jiffy flats for about two weeks. The test compounds are dispersed in 50/50 acetone/water mixtures containing 0.5% TWEEN®20, a polyoxyethylene sorbitan monolaurate surfactant of Atlas Chemical Industries, […] through a spray nozzle operating at 40 psi for a predetermined time. After spraying, the plants are placed on greenhouse benches and are cared for in the usual manner, commensurate with conventional greenhouse practices. From four to five weeks after treatment, the seedling plants are examined and rated according to the rating system set forth below. Where more than one test is involved for a given compound, the data are averaged.
# (§2) Plant species employed in these evaluations are reported by header abbreviation, common name and scientific name.
# (§3) Results of herbicide evaluation are expressed on a rating scale (0-9). The scale is based upon a visual observation of plant stand, vigor, malformation, size, chlorosis and overall plant appearance as compared with a control.
# [5] = system: ECHINOCHLOA CRUS-GALLI, (L) BEAU; test: Postemergence herbicidal evaluation, ECHCG (Barnyardgrass); parameters: key to ECHCG rating / Herbicidal effect rating, ECHCG / ECHCG: 0-9 visual rating scale vs untreated control
# How it was run: as §1
# GALIUM APARINE = test: Postemergence herbicidal evaluation, GALAP (Galium); parameters: key to GALAP rating / Herbicidal effect rating, GALAP / GALAP: 0-9 visual rating scale vs untreated control
# How it was run: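 Galium (GALAP) seedlings were raised in jiffy flats for about two weeks, then sprayed with test compounds dispersed in 50/50 acetone/water containing 0.5% TWEEN®20, delivered through a nozzle at 40 psi. Plants were kept on greenhouse benches and visually rated 0-9 against a control four to five weeks later; repeat tests were averaged.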
# ZEA MAYS L. = test: Postemergence herbicidal evaluation, ZEAMX (Corn, Field)
# Description: In the tests, seedling plants are grown in jiffy flats for about two weeks. The test compounds are dispersed in 50/50 acetone/water mixtures containing 0.5% TWEEN®20, a polyoxyethylene sorbitan monolaurate surfactant of Atlas Chemical Industries, […] to the plants through a spray nozzle operating at 40 psi for a predetermined time. After spraying, the plants are placed on greenhouse benches and are cared for in the usual manner, commensurate with conventional greenhouse practices. From four to five weeks after treatment, the seedling plants are examined and rated according to the rating system set forth below. Where more than one test is involved for a given compound, the data are averaged.
# as §2, §3
# CASSIA OBTUSIFOLIA, L. = test: Postemergence herbicidal evaluation, CASOB (Sicklepod); parameters: key to CASOB rating / Herbicidal effect rating, CASOB / CASOB: 0-9 visual rating scale vs untreated control
# How it was run: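 Greenhouse postemergence test. Seedlings (~2 wk) sprayed at 40 psi; dose ~0.125–0.500 kg/ha in acetone/water (1:1), 0.5% TWEEN 20. Scored 0–9 at 4–5 wk.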
# [6] = system: ORYZA SATIVA, L. TEBONNET; test: Rice tolerance to post-transplant applications under flooded paddy conditions, ORYSAT (Rice, Tebonnet); settings: for ORYSAT: post-transplanted rice; for ORYSAT herbicidal rating (rice tolerance): post-transplant rice, rated three to four weeks after treatment;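 for ORYSAT herbicidal rating (rice tolerance): applied to flooded soil surface three days after transplanting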
# How it was run: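 Post-transplant paddy test: compound applied 3 d after transplanting to flooded soil (1.5-3 cm water), ~0.063-0.5 kg/ha a.i., 50/50 aq/acetone. Silt loam, 2 × 10-d seedlings/pot. Greenhouse 3-4 wk, visual 0-9 score vs control.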
# CHENOPODIUM ALBUM, L. [7] = test: Preemergence herbicidal evaluation, CHEAL (Lambsquarters, Common); settings: four to five weeks after treatment
# How it was run: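 Seeds sown in potting soil cups, then sprayed preemergence with aqueous acetone compound solution at about 0.125 to 0.50 kg per hectare. Greenhouse-grown, rated 4–5 weeks after treatment on a 0–9 visual scale against control.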
smiles,measurement,setting,value
"Cn1c(=O)[nH]c(=O)n(-c2cc(Oc3c(F)cc(C(F)(F)F)cc3Cl)ccc2F)c1=O [C, reference compound]","Herbicidal effect rating, CHEAL","CHENOPODIUM ALBUM, L. [1]; 0.031 kg/ha",3.0
same,"Herbicidal effect rating, CHEAL","CHENOPODIUM ALBUM, L. [1]; 0.063 kg/ha",4.0
same,"Herbicidal effect rating, CHEAL","CHENOPODIUM ALBUM, L. [1]; 0.125 kg/ha",7.0
same,"Herbicidal effect rating, CHEAL","CHENOPODIUM ALBUM, L. [1]; 0.250 kg/ha",7.0
same,"Herbicidal effect rating, IPOSS",IPOMOEA SPP.; 0.031 kg/ha,4.0
same,"Herbicidal effect rating, IPOSS",IPOMOEA SPP.; 0.063 kg/ha,5.0
same,"Herbicidal effect rating, IPOSS",IPOMOEA SPP.; 0.125 kg/ha,6.0
same,"Herbicidal effect rating, IPOSS",IPOMOEA SPP.; 0.250 kg/ha,9.0
same,"Herbicidal effect rating, SETVI",[2]; 0.031 kg/ha,0.0
same,"Herbicidal effect rating, SETVI",[2]; 0.063 kg/ha,0.0
same,"Herbicidal effect rating, SETVI",[2]; 0.125 kg/ha,0.0
same,"Herbicidal effect rating, SETVI",[2]; 0.250 kg/ha,1.0
same,"Herbicidal effect rating, AMBEL",[3]; 0.031 kg/ha,1.0
same,"Herbicidal effect rating, AMBEL",[3]; 0.063 kg/ha,3.0
same,"Herbicidal effect rating, AMBEL",[3]; 0.125 kg/ha,4.0
same,"Herbicidal effect rating, AMBEL",[3]; 0.250 kg/ha,6.0
same,"Herbicidal effect rating, TRZAWO",[4]; 0.031 kg/ha,3.5
same,"Herbicidal effect rating, TRZAWO",[4]; 0.063 kg/ha,4.0
same,"Herbicidal effect rating, TRZAWO",[4]; 0.125 kg/ha,4.5
same,"Herbicidal effect rating, TRZAWO",[4]; 0.250 kg/ha,4.5
same,"Herbicidal effect rating, ECHCG",[5]; 0.031 kg/ha,0.0
same,"Herbicidal effect rating, ECHCG",[5]; 0.063 kg/ha,0.0
same,"Herbicidal effect rating, ECHCG",[5]; 0.125 kg/ha,0.0
same,"Herbicidal effect rating, ECHCG",[5]; 0.250 kg/ha,2.0
same,"Herbicidal effect rating, GALAP",GALIUM APARINE; 0.031 kg/ha,2.0
same,"Herbicidal effect rating, GALAP",GALIUM APARINE; 0.063 kg/ha,6.0
same,"Herbicidal effect rating, GALAP",GALIUM APARINE; 0.125 kg/ha,7.0
same,"Herbicidal effect rating, GALAP",GALIUM APARINE; 0.250 kg/ha,7.0
same,"Herbicidal effect rating, ZEAMX",ZEA MAYS L.; 0.031 kg/ha,3.0
same,"Herbicidal effect rating, ZEAMX",ZEA MAYS L.; 0.063 kg/ha,3.5
same,"Herbicidal effect rating, ZEAMX",ZEA MAYS L.; 0.125 kg/ha,4.0
same,"Herbicidal effect rating, ZEAMX",ZEA MAYS L.; 0.250 kg/ha,4.5
same,"Herbicidal effect rating, CASOB","CASSIA OBTUSIFOLIA, L.; 0.031 kg/ha",2.0
same,"Herbicidal effect rating, CASOB","CASSIA OBTUSIFOLIA, L.; 0.063 kg/ha",4.0
same,"Herbicidal effect rating, CASOB","CASSIA OBTUSIFOLIA, L.; 0.125 kg/ha",4.0
same,"Herbicidal effect rating, CASOB","CASSIA OBTUSIFOLIA, L.; 0.250 kg/ha",6.0
same,ORYSAT,[6]; Rate 0.031 kg/ha,1.0
same,ORYSAT,[6]; Rate 0.063 kg/ha,1.0
same,ORYSAT,[6]; Rate 0.125 kg/ha,3.0
same,ORYSAT,[6]; Rate 0.250 kg/ha,5.0
"COC(=O)Cn1c(=O)[nH]c(=O)n(-c2cc(Oc3ccc(C(F)(F)F)cc3Cl)ccc2[N+](=O)[O-])c1=O [Compound 8, Methyl 3-{5-[(2-chloro-α,α,α-trifluoro-p-tolyl)oxy]-2-nitrophenyl}tetrahydro-2,4,6-trioxo-s-triazine-1(2H)-acetate]","CHEAL, herbicide rating (0-9)","CHENOPODIUM ALBUM, L. [1]; Rate 0.125 kg/ha",9.0
same,"CHEAL, herbicide rating (0-9)","CHENOPODIUM ALBUM, L. [1]; Rate 0.250 kg/ha",9.0
same,"CHEAL, herbicide rating (0-9)","CHENOPODIUM ALBUM, L. [1]; Rate 0.500 kg/ha",9.0
same,"IPOSS, herbicide rating (0-9)",IPOMOEA SPP.; Rate 0.125 kg/ha,9.0
same,"IPOSS, herbicide rating (0-9)",IPOMOEA SPP.; Rate 0.250 kg/ha,9.0
same,"IPOSS, herbicide rating (0-9)",IPOMOEA SPP.; Rate 0.500 kg/ha,9.0
same,"AMBEL, herbicide rating (0-9)",[3]; Rate 0.125 kg/ha,9.0
same,"AMBEL, herbicide rating (0-9)",[3]; Rate 0.250 kg/ha,9.0
same,"AMBEL, herbicide rating (0-9)",[3]; Rate 0.500 kg/ha,9.0
same,CHEAL rating,"CHENOPODIUM ALBUM, L. [7]; Rate 0.125 kg/ha",9.0
same,CHEAL rating,"CHENOPODIUM ALBUM, L. [7]; Rate 0.250 kg/ha",9.0
same,CHEAL rating,"CHENOPODIUM ALBUM, L. [7]; Rate 0.500 kg/ha",9.0
same,ORYSAT herbicidal rating (rice tolerance),[6]; Rate 0.063 kg/ha,0.0
same,ORYSAT herbicidal rating (rice tolerance),[6]; Rate 0.125 kg/ha,0.0
same,ORYSAT herbicidal rating (rice tolerance),[6]; Rate 0.250 kg/ha,1.0
same,ORYSAT herbicidal rating (rice tolerance),[6]; Rate 0.500 kg/ha,2.0
